Results reported in US11160797B2, “Pyridinone derivatives and their use as selective ALK-2 inhibitors” (NOVARTIS AG, priority 2017, dated 2021).

Experiments:
ALK5 (aa162-503) = ALK5 (aa162-503) (Homo sapiens (Human), UniProt P36897); assay: Caliper biochemical peptide phosphorylation assay, ALK5; settings: 15 uM ATP
Procedure, shortened: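 Baculovirus-expressed human GS+kinase-domain constructs (10 nM) with 2 uM fluorescein-labelled peptide and 15 uM ATP in 50 mM Hepes pH 7.5, 1 mM MgCl2, 12 mM MnCl2, 1 mM DTT, 10 uM Na3VO4, 60 min at 30 °C. EDTA stop; phospho/unphosphorylated peptide separated by microfluidic electrophoresis, r = p/(p+s); IC50 at half-maximal signal inhibition.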

ALK6 (aa168-495) = ALK6 (aa168-495) (Homo sapiens (Human), UniProt O00238); assay: Caliper biochemical peptide phosphorylation assay, ALK6; settings: 15 uM ATP
ALK6 (aa168-495), sequence (O00238 168-495): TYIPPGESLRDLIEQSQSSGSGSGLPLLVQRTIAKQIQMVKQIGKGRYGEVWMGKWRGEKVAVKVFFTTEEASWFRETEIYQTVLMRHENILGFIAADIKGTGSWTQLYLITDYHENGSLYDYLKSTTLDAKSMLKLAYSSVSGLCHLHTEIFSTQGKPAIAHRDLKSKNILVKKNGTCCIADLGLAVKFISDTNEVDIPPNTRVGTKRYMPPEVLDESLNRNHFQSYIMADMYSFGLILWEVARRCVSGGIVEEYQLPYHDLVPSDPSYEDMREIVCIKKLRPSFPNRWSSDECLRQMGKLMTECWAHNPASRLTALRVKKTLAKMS

[1] = tested on: HuH7 cells, BMP response element (BRE) luciferase reporter, BMP6 stimulated; assay: BMP signaling reporter gene assay; format: cell-based; settings: Homo sapiens, Huh-7; BMP6 100 ng/ml; read-out: MSD HuH7 cell BMP reporter IC50
[2] = biological target: ALK2 FOP mutant (aa172-499 R206H) (Homo sapiens (Human), UniProt Q04771, R206H); assay: Caliper biochemical peptide phosphorylation assay, ALK2 FOP; settings: Caliper peptide phosphorylation, R206H, 15 uM ATP; read-out: ALK2 FOP EPK IC50
ALK2 FOP mutant (aa172-499 R206H), sequence (Q04771 172-499 R206H): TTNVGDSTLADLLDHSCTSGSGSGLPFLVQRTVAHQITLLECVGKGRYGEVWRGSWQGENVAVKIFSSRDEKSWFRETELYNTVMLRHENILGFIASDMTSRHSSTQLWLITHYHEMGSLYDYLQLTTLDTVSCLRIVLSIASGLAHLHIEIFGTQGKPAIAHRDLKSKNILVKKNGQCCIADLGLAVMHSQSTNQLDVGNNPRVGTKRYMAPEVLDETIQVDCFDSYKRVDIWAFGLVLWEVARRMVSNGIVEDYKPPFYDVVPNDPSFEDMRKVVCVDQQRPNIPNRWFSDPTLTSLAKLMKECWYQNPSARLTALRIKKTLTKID

ALK1 (aa166-493) = ALK1 (aa166-493) (Homo sapiens (Human), UniProt P37023); assay: Caliper biochemical peptide phosphorylation assay, ALK1; settings: 15 uM ATP
ALK1 (aa166-493), sequence (P37023 166-493): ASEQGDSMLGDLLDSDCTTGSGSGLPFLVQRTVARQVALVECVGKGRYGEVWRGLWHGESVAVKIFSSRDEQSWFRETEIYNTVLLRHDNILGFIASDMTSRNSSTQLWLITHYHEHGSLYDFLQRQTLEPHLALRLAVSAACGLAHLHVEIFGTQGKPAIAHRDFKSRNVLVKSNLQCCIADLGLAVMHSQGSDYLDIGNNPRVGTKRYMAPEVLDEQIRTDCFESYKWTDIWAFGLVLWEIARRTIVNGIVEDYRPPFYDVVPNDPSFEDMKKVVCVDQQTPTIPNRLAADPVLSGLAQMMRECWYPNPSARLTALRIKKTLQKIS

[3] = biological target: T1, wild-type ALK2 (aa172-499) (Homo sapiens (Human), UniProt Q04771); assay: ADPGlo biochemical autophosphorylation assay, ALK2; settings: 15 uM ATP
T1 sequence (Q04771 172-499): as the sequence (Q04771 172-499 R206H) above, with H35R counted along it

[4] = biological target: T1, wild-type ALK2 (aa172-499); assay: Caliper biochemical peptide phosphorylation assay, ALK2; settings: Caliper peptide phosphorylation, 15 uM ATP; read-out: ALK2 IC50
ALK3 (aa198-525) = ALK3 (aa198-525) (Homo sapiens (Human), UniProt P36894); assay: ADPGlo biochemical autophosphorylation assay, ALK3; settings: 15 uM ATP
ALK3 (aa198-525), sequence (P36894 198-525): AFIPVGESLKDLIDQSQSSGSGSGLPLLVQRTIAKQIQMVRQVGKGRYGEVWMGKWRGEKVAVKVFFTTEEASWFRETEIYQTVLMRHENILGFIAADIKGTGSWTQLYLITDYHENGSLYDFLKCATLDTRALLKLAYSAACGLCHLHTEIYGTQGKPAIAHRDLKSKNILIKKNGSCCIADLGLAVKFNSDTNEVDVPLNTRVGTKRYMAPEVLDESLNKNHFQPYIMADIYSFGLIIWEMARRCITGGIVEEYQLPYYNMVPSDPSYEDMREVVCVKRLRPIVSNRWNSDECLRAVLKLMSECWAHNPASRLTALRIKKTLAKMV

ALK5 (aa162-503), sequence (P36897 162-503): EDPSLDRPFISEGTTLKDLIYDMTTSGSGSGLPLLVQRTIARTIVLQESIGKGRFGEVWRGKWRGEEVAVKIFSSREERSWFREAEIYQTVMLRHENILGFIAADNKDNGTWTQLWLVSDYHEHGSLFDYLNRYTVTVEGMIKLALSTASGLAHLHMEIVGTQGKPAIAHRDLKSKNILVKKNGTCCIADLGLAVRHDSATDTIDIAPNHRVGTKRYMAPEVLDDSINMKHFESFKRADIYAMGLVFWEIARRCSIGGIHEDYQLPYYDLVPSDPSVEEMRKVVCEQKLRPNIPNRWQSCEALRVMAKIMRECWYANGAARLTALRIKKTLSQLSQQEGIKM

Structure (SMILES)	IC50 (ALK5 (aa162-503))	IC50 (ALK6 (aa168-495))	IC50 [1]	IC50 [2]	IC50 (ALK1 (aa166-493))	IC50 [3]	IC50 [4]	IC50 (ALK3 (aa198-525))
CN1C(=O)Cc2cc(-c3cncc(-c4ccc(=O)n(C5CCC5)c4)c3)ccc21 [Example 6, 5-(1′-Cyclobutyl-6′-oxo-1′,6′-dihydro-[3,3′-bipyridin]-5-yl)-1-methylindolin-2-one]	5.3 µM	2900 nM	660 nM	180 nM	1700 nM	230 nM	150 nM	3.6 µM
CC(C)n1cc(-c2cncc(-c3ccc4c(c3)CC(=O)N4CC3CCC3)c2)ccc1=O [Example 38, 1-(cyclobutylmethyl)-5-(1′-isopropyl-6′-oxo-1′,6′-dihydro-[3,3′-bipyridin]-5-yl)indolin-2-one]	3.4 µM	1100 nM	100 nM	60 nM	640 nM	130 nM	60 nM	0.54 µM
CC(C)n1nc(-c2cncc(-c3ccc4c(c3)CC(=O)N4C)c2)ccc1=O [Example 44, 5-(5-(1-isopropyl-6-oxo-1,6-dihydropyridazin-3-yl)pyridin-3-yl)-1-methylindolin-2-one]	5.7 µM	3050 nM	230 nM	80 nM	670 nM	110 nM	90 nM	1 µM
COCn1cc(-c2cncc(-c3ccc4c(c3)CC(=O)N4C)c2)ccc1=O [Example 15, 5-(1′-(methoxymethyl)-6′-oxo-1′,6′-dihydro-[3,3′-bipyridin]-5-yl)-1-methylindolin-2-one]	> 10 µM	> 10000 nM	1500 nM	740 nM	5100 nM	880 nM	760 nM	9.9 µM
CC(C)CCn1cc(-c2cncc(-c3ccc4c(c3)CC(=O)N4C)c2)ccc1=O [Example 17, 5-(1′-isopentyl-6′-oxo-1′,6′-dihydro-[3,3′-bipyridin]-5-yl)-1-methylindolin-2-one]	> 10 µM	> 10000 nM	1200 nM	910 nM	7000 nM	1100 nM	920 nM	> 15.1 µM

Other lines, results leading:

IC50 (ALK5 (aa162-503))	IC50 (ALK6 (aa168-495))	IC50 [1]	IC50 [2]	IC50 (ALK1 (aa166-493))	IC50 [3]	IC50 [4]	IC50 (ALK3 (aa198-525))	Structure (SMILES)
5.6 µM	3750 nM	310 nM	150 nM	1400 nM	460 nM	190 nM	3.4 µM	CC(C)n1cc(-c2cc(-c3ccc4c(c3)CC(=O)N4C)cnc2N)ccc1=O [Example 42, 5-(2-amino-1′-isopropyl-6′-oxo-1′,6′-dihydro-[3,3′-bipyridin]-5-yl)-1-methylindolin-2-one]
> 10 µM	> 10000 nM	790 nM	570 nM	5300 nM	680 nM	620 nM	8.5 µM	CCC(CC)Cn1cc(-c2cncc(-c3ccc4c(c3)CC(=O)N4C)c2)ccc1=O [Example 13, 5-(1′-(2-ethylbutyl)-6′-oxo-1′,6′-dihydro-[3,3′-bipyridin]-5-yl)-1-methylindolin-2-one]
1 µM	2000 nM	120 nM	90 nM	520 nM	90 nM	100 nM	0.6 µM	CC(C)n1cc(-c2nc(-c3ccc4c(c3)CC(=O)N4C)cnc2N)ccc1=O [Example 43, 5-(5-amino-6-(1-isopropyl-6-oxo-1,6-dihydropyridin-3-yl)pyrazin-2-yl)-1-methylindolin-2-one]
> 10 µM	2770 nM	540 nM	340 nM	2170 nM	725 nM	390 nM	4.2 µM	CCC1C(=O)N(C)c2ccc(-c3cncc(-c4ccc(=O)n(C(C)C)c4)c3)cc21 (stereo not drawn) [Example 22, 3-Ethyl-5-(1′-isopropyl-6′-oxo-1′,6′-dihydro-[3,3′-bipyridin]-5-yl)-1-methylindolin-2-one]
> 10 µM	> 10000 nM	630 nM	710 nM	6400 nM	490 nM	470 nM	6.3 µM	CC(C)n1cc(-c2cncc(-c3cnc4c(c3)CC(=O)N4)c2)ccc1=O [Example 41, 5-(1′-Isopropyl-6′-oxo-1′,6′-dihydro-[3,3′-bipyridin]-5-yl)-1H-pyrrolo[2,3-b]pyridin-2(3H)-one]
> 10 µM	4500 nM	1200 nM	870 nM	5600 nM	1200 nM	670 nM	5.8 µM	CC(C)n1cc(-c2cncc(-c3ccc4c(c3)C(F)(F)C(=O)N4C)c2)ccc1=O [Example 23, 3,3-Difluoro-5-(1′-isopropyl-6′-oxo-1′,6′-dihydro-[3,3′-bipyridin]-5-yl)-1-methylindolin-2-one]
4.2 µM	860 nM	100 nM	80 nM	900 nM	94 nM	100 nM	0.8 µM	CCC(CC)CN1C(=O)Cc2cc(-c3cncc(-c4ccc(=O)n(C(C)C)c4)c3)ccc21 [Example 40, 1-(2-ethylbutyl)-5-(1′-isopropyl-6′-oxo-1′,6′-dihydro-[3,3′-bipyridin]-5-yl)indolin-2-one]
